Assay results as given in PMC13242511, “Disrupting Notch signalling by a small molecule inhibiting dihydroorotate dehydrogenase activity” (Scientific Reports, 2026).

What was measured:
Assay type in all cases: cell-based
NOTCH1 = experiment: Cycloheximide chase experiment (half-life of cleaved NOTCH1); set-up: key to NOTCH1 (TMICD), DMSO as reference: western blot band intensity normalised to beta-Actin, relative to DMSO; settings: for NOTCH1/ (TMICD) band intensity: 5 µM
Method: HEK293T Notch reporter cells (clone #A1-11) were grown to 80% confluence, detached and counted. 50,000 cells were then seeded in each well of a 24-well tissue culture plate (Sarstedt, cat # 83.3924), cultivated to approximately 85% confluence and treated with 5 µM of the respective compound and 50 µg/ml Cycloheximide (CHX) solution (Sigma-Aldrich, cat #C4859-1ML). Each well was then incubated with 500 µl of compound and CHX solution and compound and CHX solution were added after the indicated intervals to another well for a total time of eight hours. Next, medium was aspirated off and cells were lysed in RIPA buffer (Thermofisher, cat #89900) containing Protease and Phosphatase inhibitors (Thermofisher, cat #78442) for 30 min on ice. Lysates were thoroughly vortexed, centrifugated for 10 min at > 13,000×g and supernatant was transferred to a fresh cup and stored at -80 °C.
Cells were washed in ice-cold PBS and incubated for 30 min on ice with RIPA cell lysis buffer (Thermofisher, cat #89900) containing protease and phosphatase inhibitors (Thermofisher, cat #78442), scraped off and homogenized using a 25G syringe, and subsequently centrifugated for 10 min at > 13,000xg. […] After electrophoresis, gels were placed directly onto a TransBlot Turbo PVDF or nitrocellulose membrane (Bio-rad, cat #1704157 and cat #1704159) and transferred using the “HIGH MW” protocol (Bio-Rad). Subsequently, membranes were blocked for 1 h at room temperature using Clear Milk Blocking Buffer (ThermoFisher, cat #37587) supplemented with 0.1% Tween20 (Sigma-Aldrich, cat #P1379). Detection of antibody binding was performed by using Clarity Western ECL-Substrate (Bio-rad, cat #1705060S). Beta-Actin protein signals were used as a loading control. Western blot membranes were in some experiments stripped after development (indicated in the figure in each respective case) by washing the membranes twice for 10 min in PBS, followed by incubation in membranes in western blot stripping buffer (ThermoFisher, cat #21059) for 30 min at room temperature and gentle agitation. Stripped membranes were washed twice with PBS and incubated for 30 min in blocking buffer before incubation with primary antibody. A list of all antibodies used in this study is provided in Supplemental Table 6. Uncropped western blot images are provided in […]. Protein expression levels of western blot bands were quantified using Fiji (V.2.16) with beta-Actin signals for normalisation (Supplemental Table 8). Uncropped western blot images are provided in Supplemental Fig. 10.

MDA-MB-468 cells [1] = experiment: Growth inhibition, metabolic activity (CellTiter-Glo); settings: Homo sapiens; MDA-MB-468, six days; read-out: approximated IC50, metabolic activity
Description: (§1) We next investigated whether compounds A-E affected growth and viability of cell lines from T-cell acute lymphoblastic leukaemia (T-ALL) and breast cancer, two tumour types in which elevated Notch signalling has been implicated in tumorigenesis. […] When testing analogues of compounds B and C, five of the seven B analogues and one of the two C analogues produced dose–response curves and IC50s, which however were higher compared to the original hits (Supplemental Fig. 5A; IC50s are presented in Supplemental Table 6).
(§2) Compounds were spotted on white 384-well tissue culture plates (Greiner, cat #781080) using an Echo 525 Acoustic liquid handler (Labcyte). Cells were grown to 80% confluence, detached if required, counted and 20 µl containing 2000–4000 cells per well was then seeded in each well and cultivated for three (4,000 cells seeded) and six days (2,000 cells seeded). […] Luciferase activity (reading out metabolic activity) was determined using the CellTiter-Glo 2.0 kit (CTG, Promega, cat #G9242) following the manufacturer’s instructions and luminescence was measured on a SpectraMaxi3 or Varioscan plate reader (Molecular Devices, Thermofisher).

MDA-MB-468 cells [2] = experiment: Three dose response gene expression analysis (qRT-PCR); settings: 0.1, 1 and 10 µM, 24 h
Method: Total RNA from cell lines was isolated using the RNeasy Mini kit (cat #74104, Qiagen), according to the manufacturer’s instructions. qRT-PCR was performed as described elsewhere[51] with some minor modifications: RNA was reverse transcribed to cDNA using iScript Reverse Transcription Supermix (cat # 1708841, Bio-rad). cDNA was then diluted 1:5 in nuclease free H20. qRT-PCR was performed on a C1000 Touch thermal cycler (Bio-rad) and gene expression was detected with SsoAdvanced Universal SYBR Green Supermix (cat # 1725274, Bio-rad). Gene expression was determined by normalizing to GAPDH mRNA expression levels and fold expression change was calculated using the ΔΔCT method (ΔΔCT = ΔCt sample − Δct control). Primers used in qPCR are shown in Supplemental Table 9.
Adherent breast cancer cells were seeded in 24-well cell culture plates (ThermoFisher, Nunc, Delta surface, cat #144530) and T-ALL cells growing in suspension (Jurkat, RPMI-8402) were seeded in non-adherent 24-well plates (ThermoFisher, Nunc, cat […]). 60.000 cells were seeded and treated with 0.1, 1 and 10 µM of each compound. […] Cells were harvested 24 h post treatment and RNA isolation and gene expression analysis (qRT-PCR) was performed as described above.

TALL-1 cells = experiment: Growth inhibition, metabolic activity (CellTiter-Glo); settings: Homo sapiens; TALL-1, six days; read-out: approximated IC50, growth (metabolic activity)
Description: as §1, §2

[3] = timepoint 0 (hours after cycloheximide)
[4] = timepoint 1 (hours after cycloheximide)
[5] = timepoint 2 (hours after cycloheximide)
[6] = timepoint 4 (hours after cycloheximide)
[7] = timepoint 6 (hours after cycloheximide)
[8] = timepoint 8 (hours after cycloheximide)

Compound | NOTCH1/ (TMICD) band intensity (NOTCH1; [3]) | NOTCH1 (TMICD) normalized to beta-Actin (used for plots) (NOTCH1; timepoint 0, 5 µM) | NOTCH1 (TMICD), DMSO as reference (NOTCH1; timepoint 0, 5 µM) | NOTCH1/ (TMICD) band intensity (NOTCH1; [4]) | NOTCH1 (TMICD) normalized to beta-Actin (used for plots) (NOTCH1; timepoint 1, 5 µM) | NOTCH1 (TMICD), DMSO as reference (NOTCH1; timepoint 1, 5 µM) | NOTCH1/ (TMICD) band intensity (NOTCH1; [5]) | NOTCH1 (TMICD) normalized to beta-Actin (used for plots) (NOTCH1; timepoint 2, 5 µM) | NOTCH1 (TMICD), DMSO as reference (NOTCH1; timepoint 2, 5 µM) | NOTCH1/ (TMICD) band intensity (NOTCH1; [6]) | NOTCH1 (TMICD) normalized to beta-Actin (used for plots) (NOTCH1; timepoint 4, 5 µM) | NOTCH1 (TMICD), DMSO as reference (NOTCH1; timepoint 4, 5 µM) | NOTCH1/ (TMICD) band intensity (NOTCH1; [7]) | NOTCH1 (TMICD) normalized to beta-Actin (used for plots) (NOTCH1; timepoint 6, 5 µM) | NOTCH1 (TMICD), DMSO as reference (NOTCH1; timepoint 6, 5 µM) | NOTCH1/ (TMICD) band intensity (NOTCH1; [8]) | NOTCH1 (TMICD) normalized to beta-Actin (used for plots) (NOTCH1; timepoint 8, 5 µM) | NOTCH1 (TMICD), DMSO as reference (NOTCH1; timepoint 8, 5 µM) | IC50 (MDA-MB-468 cells [1]) [nM] | IC50 (TALL-1 cells) [nM] | other results
COc1cccc(CNc2ccc(N3CCCCC3)cc2)c1OCc1cccs1 [compound C] | 11149.0 | 0.8 | 1.0 | 9563.6 | 0.7 | 0.9 | 5022.2 | 0.4 | 0.5 | 5169.6 | 0.347 | 0.442 | 6218.3 | 0.362 | 0.46 | 4511.9 | 0.277 | 0.352 | 1700 | – | –
CC(C)(C(=O)NCC(F)(F)C(F)(F)F)C(=O)N[C@@H]1C(=O)Nc2ccccc2-c2ccccc21 [RO4929097, reference compound] | 20583.6 | 1.3 | 1.0 | 14235.7 | 0.8 | 0.6 | 11993.7 | 0.6 | 0.5 | 14001.0 | 0.8 | 0.6 | 9107.8 | 0.8 | 0.6 | 9737.6 | 0.7 | 0.53 | – | – | protein stability of NOTCH1 (in words) (NOTCH1; cycloheximide chase, Supplemental Fig. 8B): enhanced protein stability; c-MYC expression (MDA-MB-468 cells [2]): did not reduce
CC(C)(C)c1ccc(Oc2ccc(N)cn2)cc1 [CB-103, reference compound] | – | – | – | – | – | – | – | – | – | – | – | – | – | – | – | – | – | – | – | 300 | HES4 expression (MDA-MB-468 cells [2]): upregulation
Cc1ccc2[nH]c3c(c2c1)CCOC31CCN(Cc2ccccc2-c2ccccc2)CC1 [compound B] | – | – | – | – | – | – | – | – | – | – | – | – | – | – | – | – | – | – | 1100 | 6700 | –
